Assay results: patent US6358921B1, “Antimicrobial peptide compositions and method” (priority 1996, dated 2002)

Assays:
[1] = system: S. typhinurium C610; format: cell-based, Salmonella typhinurium
From the text: (§1) The following bacterial strains were utilized: Escherichia coli UB1005 (wt) and its antibiotic supersusceptible derivative DC2 (Clark, 1984); Excherichia coli SC9251 and its polymixin B rasistant mutant pmrA SC9252 (Peterson, et al., 1987) Pseudomonas aeruginosa H187 (wt) (Angus, et al., 1987) and its antibiotic-sensitive derivative H188 (Zimmerman, W, Antimicrob. Agents Chemother. 18: 94-100, 1980); methicillin sensitive Staphylococcus aureus K147 (Kreiswirth, et al., 1983); Staphylococcus aureus SAP0017, a methicillin resistant clinical isolate from Dr. A. Chow (University of British Columia); Bacillus subtilis, an environmental wt lab strain. Enterococcus faecalis are ATCC 29212 cells and Staphylococcus epidermidis was a clinical isolate from Dr. D. Speert (University of British Columbia). Antifungal activity was tested using a clinical lab isolate of Candida albicans. Salmonella typhinurium C57 and C610 (Fields, P.I., et al., Science 243: 1059-1062 (1989) Corynebacterium xerosis was an environmental isolate (University of British Columbia).
(§2) It is now apparent that agar-based assays severely underestimate antifungal activity as well as activity against gram negative microorganisms (Kondejewski, et al., 1996). Consequently, in the studies reported herein, a liquid-broth method was used to measure the antibiotic properties of the peptides. […] Briefly, cells were grown overnight at 37° C. in LB and diluted in the same medium. Serial dilutions of antibiotics were added to the microtitre plates in a volume of 100 μL followed by 10 μL of bacteria to give a final inoculum of 5×10^5 CFU/mL. Plates were incubated at 37° C. overnight and MICs determined as the lowest antibiotic concentration that inhibited growth. […]

[2] = system: S. typhinurium C587; format: cell-based, Salmonella typhinurium
From the text: as §1, §2

[3] = system: E. coli DC2; format: cell-based, Escherichia coli; conditions: DC2
From the text: as §1
(§3) It is now apparent that agar-based assays severely underestimate antifungal activity as well as activity against gram negative microorganisms (Kondejewski, et al., 1996). Consequently, in the studies reported herein, a liquid-broth method was used to measure the antibiotic properties of the peptides. […] Briefly, cells were grown overnight at 37° C. in LB and diluted in the same medium. Serial dilutions of antibiotics were added to the microtitre plates in a volume of 100 μL followed by 10 μL of bacteria to give a final inoculum of 5×10^5 CFU/mL. Plates were incubated at 37° C. overnight and MICs determined as the lowest antibiotic concentration that inhibited growth.
(§4) The results from antimicrobial and hemolytic assays are combined to provide a “Therapeutic Index” (TI) for each peptide with respect to individual microorganisms. As reported herein, the TI is calculated as the hemolytic activity divided by the antimicrobial activity. The TI thus is a measure of specificity of the particular peptide for microbial membranes as opposed to human blood cell membranes. In the present studies, antimicrobial activities are reported as minimum inhibitory concentrations (MIC)—the lowest concentration of peptide (μg/ml) found to inhibit growth of the particular microbe. Hemolytic activity is reported as the concentration of peptide that effected complete lysis of blood cells after four hours. Thus, in the context of the present invention high TI values indicate microbial specificity and relative lack of toxicity.

[4] = system: P. aeruginosa H188; format: cell-based, Pseudomonas aeruginosa; conditions: H188
From the text: as §1, §2

[5] = system: E. faecalis; format: cell-based, Enterococcus faecalis
From the text: as §1, §2

[6] = system: S. aureus K147; format: cell-based, Staphylococcus aureus
From the text: as §1, §3, §4

[7] = system: S. aureus SAP0017; format: cell-based, Staphylococcus aureus
From the text: as §1, §3, §4

[8] = system: B. subtilis; format: cell-based, Bacillus subtilis
From the text: as §1, §2

[9] = system: C. Albicans; format: cell-based, Candida albicans
From the text: as §1, §2

[10] = system: P. aeruginosa H187; format: cell-based, Pseudomonas aeruginosa; conditions: H187
From the text: as §1, §3, §4

[11] = system: S. epidermidis; format: cell-based, Staphylococcus epidermidis
From the text: as §1, §2

[12] = system: C. xeroses; format: cell-based, Corynebacterium xerosis
From the text: as §1, §2

[13] = Displacement of dansyl-polymyxin from LPS; format: binding, P. aeruginosa; conditions: read-out: LPS binding affinity: peptide concentration to displace 50% of dansyl-polymyxin B from LPS; Tables 1, 4, 7
From the text: In order to determine whether ring size affects the interaction between the peptide and bacterial membranes, we studied the interaction between the GS ring analogs and bacterial lipopolysaccharide (LPS). It has been shown previously that dansyl-polymixin (DPX) is a good probe for cationic binding sites on both purified LPS as well as whole bacterial cells (Example 8; Moore, et al., 1986; Sawyer, et al., 1988; Hancock, 1981). […] The LPS binding activity of various GS analogs was investigated, as discussed above.
Dansyl-polymixin (DPX) displacement from P. aeruginosa LPS was measured as described (Moore, et al., 1986). Briefly, peptides were titrated into cuvettes containing 3 μg of LPS per mL and 2.5 μM dansyl-polymixin (approximately 90% saturation of LPS binding sites) in 1 mL of 5 mM sodium HEPES buffer, pH 7.0, and the decrease in fluorescence recorded. A plot of the inverse of the percent inhibition as a function of the inverse of inhibitor concentration gave a value for I50, the inhibitor concentration resulting in 50% displacement of dansyl-polymixin from LPS (−1/× intercept).

[14] = system: E. coli UB1005; format: cell-based, Escherichia coli; conditions: UB1005
From the text: as §1, §2

SMILES: CC(C)C[C@@H]1NC(=O)[C@H](CCCCN)NC(=O)[C@H](C(C)C)NC(=O)[C@H](CCCCN)NC(=O)[C@H](CC(C)C)NC(=O)[C@@H]2CCCN2C(=O)[C@@H](Cc2ccc(O)cc2)NC(=O)[C@H](C(C)C)NC(=O)[C@H](CCCCN)NC(=O)[C@H](CC(C)C)NC(=O)[C@@H](CCCCN)NC(=O)[C@H](C(C)C)NC(=O)[C@@H]2CCCN2C(=O)[C@@H](Cc2ccc(O)cc2)NC1=O [GS14K2]
- Minimum Inhibitory Concentration (activity) [1]: 3 µg/mL
- Minimum Inhibitory Concentration (activity) [2]: 25 µg/mL
- Minimum Inhibitory Concentration (activity) [3]: 3.1 µg/mL
- Minimum Inhibitory Concentration (activity) [4]: 62 µg/mL
- Minimum Inhibitory Concentration (activity) [5]: 1.5 µg/mL
- Minimum Inhibitory Concentration (activity) [6]: 100 µg/mL
- Minimum Inhibitory Concentration (activity) [7]: 50 µg/mL
- Minimum Inhibitory Concentration (activity) [8]: 50 µg/mL
- Minimum Inhibitory Concentration (activity) [9]: 6.2 µg/mL
- Minimum Inhibitory Concentration (activity) [10]: 75 µg/mL
- Minimum Inhibitory Concentration (activity) [11]: 6.2 µg/mL
- Minimum Inhibitory Concentration (activity) [12]: 0.8 µg/mL
- IC50 [13]: 50 µM

SMILES: CC(C)C[C@@H]1NC(=O)[C@H](CCCCN)NC(=O)[C@H](C(C)C)NC(=O)[C@@H]2CCCN2C(=O)[C@@H](Cc2ccc(O)cc2)NC(=O)[C@H](CC(C)C)NC(=O)[C@H](CCCCN)NC(=O)[C@H](C(C)C)NC(=O)[C@@H](CCCCN)NC(=O)[C@H](CC(C)C)NC(=O)[C@@H]2CCCN2C(=O)[C@@H](Cc2ccc(O)cc2)NC(=O)[C@H](C(C)C)NC(=O)[C@H](CCCCN)NC1=O [GS14K9]
- Minimum Inhibitory Concentration (activity) [1]: 6.2 µg/mL
- Minimum Inhibitory Concentration (activity) [2]: 17 µg/mL
- Minimum Inhibitory Concentration (activity) [3]: 3.1 µg/mL
- Minimum Inhibitory Concentration (activity) [4]: 62 µg/mL
- Minimum Inhibitory Concentration (activity) [5]: 1.5 µg/mL
- Minimum Inhibitory Concentration (activity) [6]: 50 µg/mL
- Minimum Inhibitory Concentration (activity) [7]: 25 µg/mL
- Minimum Inhibitory Concentration (activity) [8]: 25 µg/mL
- Minimum Inhibitory Concentration (activity) [9]: 6.2 µg/mL
- Minimum Inhibitory Concentration (activity) [10]: 50 µg/mL
- Minimum Inhibitory Concentration (activity) [11]: 6.2 µg/mL
- Minimum Inhibitory Concentration (activity) [12]: 1.5 µg/mL
- IC50 [13]: 60 µM

SMILES: CC(C)C[C@@H]1NC(=O)[C@H](CCCCN)NC(=O)[C@H](C(C)C)NC(=O)[C@H](CCCCN)NC(=O)[C@H](CC(C)C)NC(=O)[C@@H]2CCCN2C(=O)[C@@H](Cc2ccc(O)cc2)NC(=O)[C@H](C(C)C)NC(=O)[C@H](CCCCN)NC(=O)[C@@H](CC(C)C)NC(=O)[C@H](CCCCN)NC(=O)[C@H](C(C)C)NC(=O)[C@@H]2CCCN2C(=O)[C@@H](Cc2ccc(O)cc2)NC1=O [GS14L3]
- Minimum Inhibitory Concentration (activity) [1]: >200 µg/mL
- Minimum Inhibitory Concentration (activity) [2]: >200 µg/mL
- Minimum Inhibitory Concentration (activity) [3]: 50 µg/mL
- Minimum Inhibitory Concentration (activity) [4]: 200 µg/mL
- Minimum Inhibitory Concentration (activity) [5]: 0.8 µg/mL
- Minimum Inhibitory Concentration (activity) [6]: >200 µg/mL
- Minimum Inhibitory Concentration (activity) [7]: 200 µg/mL
- Minimum Inhibitory Concentration (activity) [8]: >200 µg/mL
- Minimum Inhibitory Concentration (activity) [9]: 100 µg/mL
- Minimum Inhibitory Concentration (activity) [10]: >200 µg/mL
- Minimum Inhibitory Concentration (activity) [11]: 50 µg/mL
- Minimum Inhibitory Concentration (activity) [12]: 0.8 µg/mL
- Minimum Inhibitory Concentration (activity) [14]: 200 µg/mL
- IC50 [13]: 35 µM
